# Test results: patent publication US9868973B2, “Method for optimizing post-translational modifications on recombinant proteins” (STC Biologics, Inc., priority 2014, dated 2018)
# System: fucosyl transferase
# Assay: Modulation of glycosylation PTMs of trastuzumab biosimilar in CHO cells by FTI (Methods 1 and 2), 2AB glycan analysis
# Assay type: cell-based, Chinese Hamster
# Method: To obtain a recipe for production of a biosimilar with a similar glycosylation pattern to the original Herceptin®, CHO cells engineered to express the recombinant protein with an amino acid sequence identical to trastuzumab were first grown in the growth media without any inhibitors to establish a Baseline. The glycan species were analyzed using 2AB glycan method. It was observed that Peak 2 (G0) and Peak 6 (G1), and Peak 7 (mannose-5 and G1′) PTMs were lower for the biosimilar than their target PTMs.
# G0, G1 and G1′ PTMs are non-fucosylated PTMs and are controlled by a host protein called fucosyl transferase and the mannose-5 PTM is controlled by the host protein known as α-mannosidase I. Fucosyl transferase can be inhibited by a variety of fucosyltransferase inhibitors shown in FIG. 2, α-mannosidase I can be inhibited by kifunensine.
# Briefly to obtain trastuzumab with PTMs in the target range, cells were placed in growth media and treated with 2F-Peracetyl-Fucose (FTI) on day 7 at different concentrations (20 μM, 10 μM, 5 μM, 1 μM, 0.1 μM) to identify optimal drug concentration. On day 12 cells were harvested and the trastuzumab biosimilar isolated. […] FTI concentrations used to reach target PTMs are cell specific so it is expected that different concentrations of the FTI or other modulators would be required when a starting cell line is different from the one described in this example.
# Different treatment methods such as Method 2 can be used to obtain target PTMs. For example, FTI can be added on a daily basis starting on day 5 (Table 3, Method 2) rather than on Day 7.
# [1] = Method 1: 10 μM FTI on Day 7, trastuzumab biosimilar from CHO cells
# [2] = Method 2: […]-[…] FTI every day starting at day 5, trastuzumab biosimilar from CHO cells
smiles,measurement,setting,value
"CC(=O)OC1O[C@@H](C)[C@@H](OC(C)=O)[C@@H](OC(C)=O)[C@@H]1F (stereo partly shown) [FTI, 2F-Peracetyl-Fucose]","G0, G1 and G1′ PTM levels versus target PTM range","10 μM FTI on day 7, harvest day 12",matched the target PTM range
same,"G0, G1 and G1′ PTM levels versus target PTMs","20 μM FTI on day 7, harvest day 12","increase of G0, G1 and G1′ PTMs above that of target PTMs"
same,PTMs versus target range,"FTI at concentrations lower than 8 μM, day 7",outside the target range
same,Glycan Species Peak 1,[1],1.5%
same,Glycan Species Peak 2-G0,[1],4%
same,Glycan Species Peak 3,[1],1.5%
same,Glycan Species Peak 4-G0F,[1],44%
same,Glycan Species Peak 5,[1],0.8%
same,Glycan Species Peak 6-G1,[1],1.8%
same,Glycan Species Peak 7- G1F/mannose 5,[1],1.2%
same,"Glycan Species Peak 8- (1, 6)G1F",[1],26%
same,"Glycan Species Peak 9 (1, 3)G1F",[1],11%
same,Glycan Species Peak 10 G2F,[1],6.5%
same,Glycan Species Peak 11,[1],0.2%
same,Glycan Species Peak 12,[1],0.25%
same,Glycan Species Peak 13,[1],0.2%
same,Glycan Species Peak 14,[1],0.2%
same,Glycan Species Peak 15,[1],0.2%
same,Glycan Species Peak 4-G0F,[2],44%
same,"Glycan Species Peak 8- (1, 6)G1F",[2],26%
same,"Glycan Species Peak 9 (1, 3)G1F",[2],11%
same,Glycan Species Peak 10 G2F,[2],6.5%
